# According to US20150346214A1, “DETECTION OF MEMBRANE PROTEINS” (priority 2012, published 2015):
# “Also recorded” adds a separate entry of the source.
# Experiments:
# Aquaporin Z (AQPZ) [1] = target: T1, Aquaporin Z (AQPZ) (Escherichia coli, UniProt P60844); assay: Phospholipid binding to AQPZ resolved by native MS / IM-MS in C8E4; design: species or system E. coli; conditions: AQPZ in C8E4; optimised P:L:D ratio of Table 2
# ammonia channel (AmtB) [2] = target: T2, ammonia channel (AmtB) (Escherichia coli, UniProt P69681); assay: Phospholipid binding to AmtB resolved by native MS / IM-MS in C8E4; design: species or system E. coli; conditions: for # Bound (number of resolvable phospholipids bound): AmtB in C8E4, optimised P:L:D ratio of Table 2; for extent of phospholipid binding to AmtB: in words, co-transport into the gas phase
# T2 sequence (P69681 26-428): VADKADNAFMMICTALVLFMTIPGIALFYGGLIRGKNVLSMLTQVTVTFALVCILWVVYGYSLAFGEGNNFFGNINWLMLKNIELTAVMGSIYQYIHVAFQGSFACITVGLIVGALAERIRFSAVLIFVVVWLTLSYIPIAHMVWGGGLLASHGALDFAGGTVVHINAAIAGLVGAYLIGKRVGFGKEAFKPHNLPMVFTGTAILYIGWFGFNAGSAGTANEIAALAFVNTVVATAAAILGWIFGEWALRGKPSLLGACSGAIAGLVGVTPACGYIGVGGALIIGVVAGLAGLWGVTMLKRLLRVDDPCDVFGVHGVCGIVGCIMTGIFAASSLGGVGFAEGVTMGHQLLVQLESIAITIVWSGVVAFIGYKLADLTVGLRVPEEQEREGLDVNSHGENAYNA
# [3] = target: T3, mechanosensitive channel of large conductance (MscL) (Mycobacterium tuberculosis, UniProt P9WJN5); assay: Phospholipid binding to MscL resolved by native MS / IM-MS in C8E4; conditions: optimised P:L:D ratio of Table 2
# T3 sequence (P9WJN5 1-151): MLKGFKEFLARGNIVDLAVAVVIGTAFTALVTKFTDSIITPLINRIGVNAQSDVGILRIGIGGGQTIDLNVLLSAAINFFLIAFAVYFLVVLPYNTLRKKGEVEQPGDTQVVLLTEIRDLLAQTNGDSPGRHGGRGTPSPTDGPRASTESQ
# ammonia channel (AmtB) [4] = target: T2, ammonia channel (AmtB); assay: Gas-phase (collision-induced) unfolding IM-MS: stabilisation of AmtB by bound phospholipid; type: binding, E. coli; conditions: +15 charge state, versus apo form
# Description: (§1) IM-MS was used to resolve individual phospholipid-bound states of membrane proteins, in folded conformations, devoid of the complication of the lipid bilayer. Bound phospholipids were then ranked based on their ability to prevent gas-phase unfolding. Combining the IM-MS data for the three protein complexes with molecular dynamic (MD) simulations, probable lipid binding sites were then identified.
# Ion mobility measurements were performed on a modified Synapt G1 HDMS instrument with the travelling-wave on mobility cell replaced by an 18-cm drift cell with radial RF on confinement and a linear voltage gradient to direct ions along the axis of transmission to the time-of-flight (TOF) mass analyser. Ion mobility mass spectrometer was typically set to a source pressure of 5-7 mBar, capillary voltage of 1.4-1.7 kV, capillary nanoflow of 0.03-0.2 mBar and argon as collision gas with flow rate set to 5-8 mL/min (˜6.6-6.7 e-2 mBar). Collision voltage ranged from 2-240 V with measurements taken at 5 V and 2 V steps for monitoring gas-phase unfolding of membrane and soluble protein complexes, respectively. The sample and extraction cone and trap bias voltages, quadrupole profile, and collision gas pressure were optimized for maximal ion intensity of the target membrane protein complex. Helium was the drift cell gas and set to a pressure of ˜1.6-1.8 Torr (40 ml/min flow rate). Pusher time, pulse width and TDC inhibit were set to 180, 7 and 7 μs, respectively. The ion guide/source (300 ms^−1, 10 V), trap (300 ms^−1, 0.2 V) and transfer (100 ms^−1, 10 V) travelling wave velocities and wave heights were kept constant. The mobility release time was set at 200 μs with a trap voltage of 30 V and extract voltage of 10 V. Pressure and temperature of the ion mobility cell was measured directly. Ion drift time (td) was determined as described in Bush et al (Analytical Chemistry, 2010, 82, 9557-.9565).
# Ion mobility data were imported using a custom script provided by Waters at an m/z resolution of four in drift data and one in mass spectra for fitting. Mass spectra were smoothed and theoretical mass spectra were fitted as outlined above. A standardized integration window was employed for extracting arrival time distributions (ATD) using a resolution (R=[…]) of 1000 and a height cut-off of 25% for the modelled Gaussian to the respective m/z peak. […]
# To extract quantitative values for the effects of phospholipid binding on unfolding pathways, an established equilibrium unfolding model, used extensively in solution studies involving chemical denaturation, was applied. […] By comparing the apo form of the protein with lipid bound states, the average stabilisation was calculated by fitting the unfolding pathway for the most abundant charge state, identifying four distinct intermediate states. […]
# Aquaporin Z (AQPZ) [5] = target: T1, Aquaporin Z (AQPZ); assay: Gas-phase (collision-induced) unfolding IM-MS: stabilisation of AQPZ by bound phospholipid; type: binding, E. coli; conditions: +13 charge state, versus apo form
# Description: as §1
# Ion mobility measurements were performed on a modified Synapt G1 HDMS instrument with the travelling-wave on mobility cell replaced by an 18-cm drift cell with radial RF on confinement and a linear voltage gradient to direct ions along the axis of transmission to the time-of-flight (TOF) mass analyser. […] The mobility release time was set at 200 μs with a trap voltage of 30 V and extract voltage of 10 V. Pressure and temperature of the ion mobility cell was measured directly. Ion drift time (td) was determined as described in Bush et al (Analytical Chemistry, 2010, 82, 9557-.9565). […]
# To extract quantitative values for the effects of phospholipid binding on unfolding pathways, an established equilibrium unfolding model, used extensively in solution studies involving chemical denaturation, was applied. […]
# T1 sequence (P60844 whole entry): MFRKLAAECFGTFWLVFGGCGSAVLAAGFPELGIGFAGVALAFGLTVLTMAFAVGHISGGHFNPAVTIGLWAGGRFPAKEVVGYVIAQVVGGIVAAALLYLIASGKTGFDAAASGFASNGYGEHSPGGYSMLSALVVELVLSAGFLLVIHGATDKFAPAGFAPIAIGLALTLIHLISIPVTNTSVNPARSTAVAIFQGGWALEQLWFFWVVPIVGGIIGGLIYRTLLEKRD
Compound,# Bound (number of resolvable phospholipids bound) (Aquaporin Z (AQPZ) [1]),# Bound (number of resolvable phospholipids bound) (ammonia channel (AmtB) [2]),"bound phospholipid molecules (ammonia channel (AmtB) [2]; AmtB, moderate collision activation 175 V (FIG. 7a))",# Bound (number of resolvable phospholipids bound) [3],average stabilisation of AmtB by bound phospholipid (resistance to gas-phase unfolding) (ammonia channel (AmtB) [4]),extent of phospholipid binding to AmtB (ammonia channel (AmtB) [2]),average stabilisation of AQPZ by bound phospholipid (resistance to gas-phase unfolding) (Aquaporin Z (AQPZ) [5])
L-α-phosphatidylglycerol (E. coli) [PG],3,4,one to four,2,dramatic increase in stabilisation; also recorded: significant stabilisation,,
"CCCCCCCC/C=C\CCCCCCCC(=O)O[C@H](COC(=O)CCCCCCCCCCCCCCC)COP(=O)(O)O [PA, 1-palrnitoyl-2-oleoyl-sn-glycero-3-phosphate (16:0-18:1)]",2,3,,1,not correlated with significant stabilisation,extensive,
"CCCCCCCC/C=C\CCCCCCCC(=O)O[C@H](COC(=O)CCCCCCCCCCCCCCC)COP(=O)(O)OC[C@H](N)C(=O)O [PS, 1-palmitoyl-2-oleoyl-sn-glycero-3-phospho-L-serine (16:0-18:1)]",3,3,,2,not correlated with significant stabilisation,extensive,
Cardiolipin (E. coli) [CDL],1,1,,1,significant stabilisation,only low populations,substantial increase in protein stability compared to all other phospholipids; also recorded: stabilises AQPZ significantly
